Source: US20250120948A1, “Small Molecules G(alpha)I2 Inhibitors and Combination With Anticancer Drugs and Use Thereof” (Georgia Tech Research Corporation, priority 2023, published 2025)
Values belong to the molecule of their own block, whether it stands above or below them.

How the values were obtained:
[1] = Stability in human liver microsomes; type: in vitro ADME
Experimental: (§1) On the strength of their potency, the stability of 6, 7 and 10 was determined in human and mouse plasma and liver microsomes.

PC3 cells = assay: Transwell migration assay in PC3 prostate cancer cells; type: cell-based, human; details: for effect on PC3 cell migration: compounds tested at 0.1 to 100 μM, compared with 14; for block of SAHA-stimulated cell migration in PC3 cells / block of docetaxel-stimulated cell migration in PC3 cells: second generation inhibitors at 20 μM, simultaneous treatment; for effect of chemotherapeutic drug on cell migration in PC3 cells: drug alone
Experimental: (§2) In vitro transwell migration assays were conducted as described previously (Caggia et al., “Novel Role of Gialpha2 in Cell Migration: Downstream of PI3-kinase-AKT and RacI in Prostate Cancer Cells,” J Cell Physiol, 234:802-815 (2018); Caggia et al., “Small Molecule Inhibitors Targeting Galphai2 Protein Attenuate Migration of Cancer Cells,” Cancers (Basel), 12(6):1631 (2020)). Briefly, the outside of the transwell inserts (BD Biosciences, San Jose, CA) were coated with 50 μl of rat tail collagen ([…]; BD Biosciences, San Jose, CA) overnight at 4° C. The next day, 50 μl of the aforementioned rat tail collagen were added for 1 hour at room temperature into the transwell inserts, to coat the inside of the membranes. DU145, PC3 and LNCaP cells were trypsinized and suspended at the appropriate density (3×10^5 cells/insert for DU145 and PC3, and 5×10^5 cells/insert for LNCaP) in MEM or RPMI containing 0.2% BSA (Sigma-Aldrich, St. Louis, MO). Chemoattractant solution, used as positive control, was made by diluting the epidermal growth factor (EGF) (10 ng/ml) into MEM (PC3 and DU145) or RPMI (LNCaP) supplemented with 0.2% BSA. Media containing 0.2% BSA served as a control. Control and EGF solutions ([…]) were added into the wells of a 24-well plate. Aliquots of 100 μl of cell suspensions, treated with or without the different compounds at several concentrations, were loaded into the transwell inserts and the plates were incubated at 37° C. for 5 hours (DU145 and PC3) or 24 hours (LNCaP). The cells inside the transwell inserts were removed by cotton swabs, and the cleaned inserts were fixed with 350 μl of 4% paraformaldehyde (pH 7.5) for 20 minutes at room temperature. Cells that had migrated to the outside of the transwell insert membrane were stained with 3 ng/ml of DAPI solution (Thermo Fisher Scientific, Eugene, OR) and images of five non-overlapping fields were captured using Axiovert 200M, Carl Zeiss (Thornwood, NY) microscope. The number of stained nuclei were determined with automatic counting using image analysis software (ZEN 2012; Carl Zeiss). Results were expressed as migration index defined as the average number of cells per field for test substance/the average number of cells per field for the medium control.
The effects of the newly synthesized compounds on the migratory behavior of PC3 cells were investigated in transwell migration assays as inventors have done before (Caggia et al., “Small Molecule Inhibitors Targeting Galphai2 Protein Attenuate Migration of Cancer Cells,” Cancers (Basel), 12(6):1631 (2020)). Compounds were tested at a concentration range of 0.1 to 100 μM. […] To potentially obtain insight into the disparity in their Gαi inhibition activities, molecular docking was performed on the enantiomers of 6 (6-R and 6-S) and 15 (15-R and 15-S). […] This slightly weaker binding affinity may partially explain the disproportionately weaker potency of 15 relative to 6. Other molecular factors, such as those which led to the attenuated potency observed with amino- to ether-group switch in the 7/10 pair, may contribute to the reduced potency of 15. Finally, most of these compounds have no effects on the morphology of PC3 cells or viability of several cancer cells at the concentrations as high as 100 μM.

[2] = Stability in mouse liver microsomes; type: in vitro ADME
Experimental: as §1

LNCaP cells = assay: Transwell migration assay in LNCaP prostate cancer cells; type: cell-based, human; details: drug alone; for effect of chemotherapeutic drug on cell migration in LNCaP cells: several concentrations, 24 hours
Experimental: as §2
To determine the effects of HDACi on prostate cancer cell migration, migration assays were performed in androgen receptor (AR)-positive LNCaP cells using several concentrations of SAHA (0.1, 0.25, 0.5, 1, 2, 4 μM), a commercially available HDACi. […] Inventors have previously developed a very potent HDACi inhibitor (SBI-I-19), coupled with an anti-androgen, enzalutamide, which selectively targets androgen sensitive prostate cancer cells for its cytotoxic effects (Gryder et al., “Selectively Targeting Prostate Cancer with Antiandrogen Equipped Histone Deacetylase Inhibitors,” ACS Chem Biol, 8:2550-2560 (2013)). The possible effects of different concentrations of SBI-I-19 on cell migration in LNCaP cells were determined.

DU145 cells = assay: Transwell migration assay in DU145 prostate cancer cells; type: cell-based, human; details: drug alone
Experimental: In vitro transwell migration assays were conducted as described previously (Caggia et al., “Novel Role of Gialpha2 in Cell Migration: Downstream of PI3-kinase-AKT and RacI in Prostate Cancer Cells,” J Cell Physiol, 234:802-815 (2018); Caggia et al., “Small Molecule Inhibitors Targeting Galphai2 Protein Attenuate Migration of Cancer Cells,” Cancers (Basel), 12(6):1631 (2020)). Briefly, the outside of the transwell inserts (BD Biosciences, San Jose, CA) were coated with 50 μl of rat tail collagen ([…]; BD Biosciences, San Jose, CA) overnight at 4° C. The next day, 50 μl of the aforementioned rat tail collagen were added for 1 hour at room temperature into the transwell inserts, to coat the inside of the membranes. DU145, PC3 and LNCaP cells were trypsinized and suspended at the appropriate density (3×10^5 cells/insert for DU145 and PC3, and 5×10^5 cells/insert for LNCaP) in MEM or RPMI containing 0.2% BSA (Sigma-Aldrich, St. Louis, MO). Chemoattractant solution, used as positive control, was made by diluting the epidermal growth factor (EGF) (10 ng/ml) into MEM (PC3 and DU145) or RPMI (LNCaP) supplemented with 0.2% BSA. Media containing 0.2% BSA served as a control. Control and EGF solutions ([…]) were added into the wells of a 24-well plate. Aliquots of 100 μl of cell suspensions, treated with or without the different compounds at several concentrations, were loaded into the transwell inserts and the plates were incubated at 37° C. for 5 hours (DU145 and PC3) or 24 hours (LNCaP). […] The number of stained nuclei were determined with automatic counting using image analysis software (ZEN 2012; Carl Zeiss). Results were expressed as migration index defined as the average number of cells per field for test substance/the average number of cells per field for the medium control.
To determine whether the induction of cell migration by AR-antagonists and HDACi was limited to only AR-positive cells, the effects of anti-androgens and HDACi and docetaxel in AR-negative DU145 and PC3 cells were determined.

stability in liver microsomes [1]: robustly stable in both species
stability in liver microsomes [2]: robustly stable in both species
Structure (SMILES): CC(Nc1ccc(O)cc1)c1cc2ccccc2n1C (racemic) [Compound 6, 4-((1-(1-methyl-1H-indol-2-yl)ethyl)amino)phenol]
block of stimulatory effects of Docetaxel on PC3 cell migration (PC3 cells; FIG. 13, concentration not given): block the stimulatory effects of Docetaxel on PC3 cell migration
effect on PC3 cell migration (PC3 cells): more effective relative to 14
block of SAHA-stimulated cell migration in PC3 cells (PC3 cells): blocked the stimulatory effects of docetaxel and SAHA in PC3 cells
block of docetaxel-stimulated cell migration in PC3 cells (PC3 cells): blocked the stimulatory effects of docetaxel and SAHA in PC3 cells

stability in liver microsomes [1]: only stable in the human microsome
stability in liver microsomes [2]: only stable in the human microsome
Structure (SMILES): CSc1ccc(NC(C)c2cc3ccccc3n2C)cc1 (racemic) [Compound 7, N-(1-(1-methyl-1H-indol-2-yl)ethyl)-4-(methylthio)aniline]
block of stimulatory effects of EGF on PC3 cell migration (PC3 cells; EGF-stimulated): blocks the stimulatory effects of EFG on PC3 cell migration
effect on PC3 cell migration (PC3 cells): more effective relative to 14
block of SAHA-stimulated cell migration in PC3 cells (PC3 cells): blocked the stimulatory effects of docetaxel and SAHA in PC3 cells
block of docetaxel-stimulated cell migration in PC3 cells (PC3 cells): blocked the stimulatory effects of docetaxel and SAHA in PC3 cells

Structure (SMILES): CC(Oc1ccc(S(C)(=O)=O)cc1)c1cc2ccccc2n1C (racemic) [Compound 12, 1-methyl-2-(1-(4-(methylsulfonyl)phenoxy)ethyl)-1H-indole]
effect on PC3 cell migration (PC3 cells): less effective, eliciting reduced anti-migration activities relative to the other compounds

Structure (SMILES): CC(Oc1ccc(O)cc1)c1cc2ccccc2n1C (racemic) [Compound 15, 4-(1-(1-methyl-1H-indol-2-yl)ethoxy)phenol]
effect on PC3 cell migration (PC3 cells): did not inhibit the migration of PC3 cells at the maximum concentration tested

Structure (SMILES): Cn1c(/C=N/c2ccc(O)cc2)cc2ccccc21 [Compound 3, (E)-4-(((1-methyl-1H-indol-2-yl)methylene)amino)phenol]
effect on PC3 cell migration (PC3 cells): concentration dependent reduction of PC3 cell migration, but less efficiently relative to 14

Structure (SMILES): CSc1ccc(/N=C(\C)c2cc3ccccc3n2C)cc1 [Compound 4, (E)-1-(1-methyl-1H-indol-2-yl)-N-(4-(methylthio)phenyl)ethan-1-imine]
effect on PC3 cell migration (PC3 cells): concentration dependent reduction of PC3 cell migration, but less efficiently relative to 14

Structure (SMILES): Cn1c(CNc2ccc(O)cc2)cc2ccccc21 [Compound 5, 4-(((1-methyl-1H-indol-2-yl)methyl)amino)phenol]
effect on PC3 cell migration (PC3 cells): comparable potency

stability in liver microsomes [1]: only stable in the human microsome
stability in liver microsomes [2]: only stable in the human microsome
Structure (SMILES): CSc1ccc(OC(C)c2cc3ccccc3n2C)cc1 (stereo not drawn) [Compound 10, 1-methyl-2-(1-(4-(methylthio)phenoxy)ethyl)-1H-indole]
effect on PC3 cell migration (PC3 cells): less potent compared to 7
block of SAHA-stimulated cell migration in PC3 cells (PC3 cells): blocked the stimulatory effects of docetaxel and SAHA in PC3 cells
block of docetaxel-stimulated cell migration in PC3 cells (PC3 cells): blocked the stimulatory effects of docetaxel and SAHA in PC3 cells

Structure (SMILES): CC(Oc1ccc([S+](C)[O-])cc1)c1cc2ccccc2n1C (stereo not drawn) [Compound 13, 1-methyl-2-(1-(4-(methylsulfinyl)phenoxy)ethyl)-1H-indole]
effect on PC3 cell migration (PC3 cells): less effective, eliciting reduced anti-migration activities relative to the other compounds

Structure (SMILES): O=C(CCCCCCC(=O)Nc1ccccc1)NO [SAHA]
effect of chemotherapeutic drug on cell migration in LNCaP cells (LNCaP cells): significant dose-dependent increase in cell migration
effect of chemotherapeutic drug on cell migration in DU145 cells (DU145 cells): increased cell migration
effect of chemotherapeutic drug on cell migration in PC3 cells (PC3 cells): induced increase in cell migration

Structure (SMILES): CC1(C)C(=O)N(c2ccc(C#N)c(C(F)(F)F)c2)C(=O)N1Cc1ccc(-c2cn(CCCCC(=O)NO)nn2)cc1 [SBI-I-19]
effect of chemotherapeutic drug on cell migration in LNCaP cells (LNCaP cells): significant dose-dependent increase in cell migration
effect of chemotherapeutic drug on cell migration in DU145 cells (DU145 cells): increased cell migration

Structure (SMILES): CC(O)(CS(=O)(=O)c1ccc(F)cc1)C(=O)Nc1ccc(C#N)c(C(F)(F)F)c1 (stereo not drawn) [bicalutamide]
concentration of maximum induction of cell migration in LNCaP cells (LNCaP cells): 2.5 µM

Structure (SMILES): CC(=O)O[C@@]12CO[C@@H]1C[C@H](O)[C@@]1(C)C(=O)[C@H](O)C3=C(C)[C@@H](OC(=O)[C@H](O)[C@@H](NC(=O)OC(C)(C)C)c4ccccc4)C[C@@](O)([C@@H](OC(=O)c4ccccc4)[C@H]21)C3(C)C [docetaxel, reference compound]
effect of chemotherapeutic drug on cell migration in PC3 cells (PC3 cells): induced increase in cell migration

Structure (SMILES): CNC(=O)c1ccc(N2C(=S)N(c3ccc(C#N)c(C(F)(F)F)c3)C(=O)C2(C)C)cc1F [enzalutamide]
concentration of maximum induction of cell migration in LNCaP cells (LNCaP cells): 2.5 µM
effect of chemotherapeutic drug on cell migration in LNCaP cells (LNCaP cells): dose-dependent increase in cell migration
effect of chemotherapeutic drug on cell migration in DU145 cells (DU145 cells): increased cell migration
